# Experiments:
# [1] = target: T1, Sma nuc endonuclease (isoform Sm2) (Serratia marcescens, UniProt P13717); assay: hyperchromic RNA hydrolysis assay at […] nm; secondary double reciprocal plot of Lineweaver-Burk segments; assay type: biochemical
# T1 construct: gene nucA; Sm2 known as the full 245-residue mature form (signal peptide removed)
# T1 sequence (P13717 22-266): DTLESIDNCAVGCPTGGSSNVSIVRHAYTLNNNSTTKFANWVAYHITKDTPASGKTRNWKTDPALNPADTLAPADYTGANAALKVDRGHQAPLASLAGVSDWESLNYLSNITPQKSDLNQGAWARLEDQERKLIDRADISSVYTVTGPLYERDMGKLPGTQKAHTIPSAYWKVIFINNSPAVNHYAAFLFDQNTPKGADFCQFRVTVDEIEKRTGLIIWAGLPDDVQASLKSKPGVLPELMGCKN
# [2] = target: T1, Sma nuc endonuclease (isoform Sm2); assay: hyperchromic RNA hydrolysis assay at […] nm; Cornish-Bowden plot S/V against [I]; assay type: biochemical; conditions: RNA substrate 0.03-0.18 mM, 50 mM Tris-HCl pH 8.5, MgSO4 1.2-7.2 mM, 37 °C; uncompetitive
structure (smiles),measurement,setting,value
Nc1ncnc2c1ncn2[C@@H]1O[C@H](COP(=O)(O)O)[C@@H](O)[C@H]1O [AMP],Ki,[1],76.5 µM
Nc1ccn([C@@H]2O[C@H](COP(=O)(O)O)[C@@H](O)[C@H]2O)c(=O)n1 [CMP],Ki,[2],86.2 µM
Nc1nc2c(ncn2[C@@H]2O[C@H](COP(=O)(O)O)[C@@H](O)[C@H]2O)c(=O)[nH]1 [GMP],Ki,[2],229 µM
O=c1ccn([C@@H]2O[C@H](COP(=O)(O)O)[C@@H](O)[C@H]2O)c(=O)[nH]1 [UMP],Ki,[2],310.7 µM
Nc1ncnc2c1ncn2[C@H]1C[C@H](O)[C@@H](COP(=O)(O)O)O1 [dAMP],Ki,[1],60 µM
